Laboratory results: US9707281B2, “Pharmaceutical compositions and methods for digesting atherosclerotic plaques” (Northwestern University, priority 2010, dated 2017)

Tested on: Human arterial plaque samples
Assay: in vitro dissolution and digestion of atherosclerotic plaque specimens (percent reduction of plaque weight)
Settings: EDTA 0.5-2 mg/ml, β-cyclodextrin 1-100 mMol, tPA 0.5-2 mg/ml, p<0.05
Method: Atherosclerotic plaques from surgical endarterectomies were obtained from various anatomic sites. All experiments were performed by cutting a given plaque into equal parts by weight then exposing them to various agents alone and in combination to determine the most optimal digestion solution. The optimal concentration and conditions for plaque dissolution and digestion were determined for ethylenediaminetetraacetic acid (EDTA), β-cyclodextrin, tPA, collagenase type I, III, IV, and V. Weights of each specimen were obtained prior to exposure of each solution and at different time points to determine percent of digested versus undigested plaque. Additional variables that were assessed and optimized include: 1) different combinations of EDTA, β-cyclodextrin, and the collagenases, 2) temperature, 3) pH, and 4) agitation.
Atherosclerotic plaques were obtained from patients undergoing endarterectomies. The optimal concentration and conditions for plaque dissolution and digestion were determined for ethylenediaminetetraacetic acid (EDTA), β-cyclodextrin, and collagenase type I, III, IV, and V. Variables that were assessed included: 1) combination of different agents, 2) time, 3) temperature, 4) pH, and 5) agitation. Weight of each specimen was measured at different time points to determine percent of undigested plaque. […]

SMILES | reduction in plaque weight, agent alone [%]
O=C(O)CN(CCN(CC(=O)O)CC(=O)O)CC(=O)O [EDTA, ethylenediaminetetraacetic acid] | 15
OC[C@H]1O[C@@H]2O[C@H]3[C@H](O)[C@@H](O)[C@@H](O[C@H]4[C@H](O)[C@@H](O)[C@@H](O[C@H]5[C@H](O)[C@@H](O)[C@@H](O[C@H]6[C@H](O)[C@@H](O)[C@@H](O[C@H]7[C@H](O)[C@@H](O)[C@@H](O[C@H]8[C@H](O)[C@@H](O)[C@@H](O[C@H]1[C@H](O)[C@H]2O)O[C@@H]8CO)O[C@@H]7CO)O[C@@H]6CO)O[C@@H]5CO)O[C@@H]4CO)O[C@@H]3CO [β-cyclodextrin] | 2
